What was measured:
[1] = Rate of dissolution in H2O at 25° C. of rebaudioside A polymorph and amorphous forms; format: physicochemical
[2] = format: physicochemical
Method: A solution of rebaudioside A (>97% pure by HPLC ) was prepared in double distilled water (12.5 gm in 50 mL, 25% concentration) by stirring the mixture at 40° C. for 5 minutes. An amorphous form of_rebaudioside A was formed by immediately using the clear solution for spray drying with the Lab-Plant spray drier SD-04 instrument (Lab-Plant Ltd., West Yorkshire, U.K.). The solution was fed through the feed pump into the nozzle atomizer which atomized it into a spray of droplets with the help of a constant flow of nitrogen/air. […] This dry powder (11-12 g, H2O 6.74%) was discharged continuously from the drying chamber and was collected in a bottle.

| Rate of dissolution in H2O at 25° C. (grade in words) [1] | Rate of dissolution in H2O at 25° C. ([1]; 60 minutes) | Rate of dissolution in H2O at 25° C. ([1]; 5 minutes) | solubility in water [2] [%] | Substance |
| --- | --- | --- | --- | --- |
| Very low | (<0.2%/60 %/60 minutes |  |  | rebaudioside A [Form 1] |
| Intermediate |  | (<30%/5 %/5 minutes |  | rebaudioside A [Form 2] |
| High |  | (>30%/5 %/5 minutes |  | rebaudioside A [Form 3] |
| High |  | (>35.0%/5 %/5 minutes | > 35.0 | rebaudioside A [Form 4] |

Reference: patent US20070116800A1, “Chewing Gum with High-Potency Sweetener” (The Coca-Cola Company, priority 2005, published 2007)
